According to ChEMBL document CHEMBL1147425, “Structure-activity relationships of non-imidazole H(3) receptor ligands. Part 3: 5-Substituted 3-phenyl-1,2,4-oxadiazoles as potent antagonists” (Bioorg Med Chem Lett, 2004):

What was measured:
[1] = target: Histamine H3 receptor (Homo sapiens, UniProt Q9Y5N1); assay: Binding affinity for human histamine H3 receptor on human colon cells; assay type: cell-based
[2] = target: Histamine H3 receptor (Rattus norvegicus, UniProt Q9QYN8); assay: Binding affinity for rat histamine H3 receptor on rat cortical cells
Chain of Histamine H3 receptor (Rattus norvegicus, UniProt Q9QYN8) (Q9QYN8 whole entry): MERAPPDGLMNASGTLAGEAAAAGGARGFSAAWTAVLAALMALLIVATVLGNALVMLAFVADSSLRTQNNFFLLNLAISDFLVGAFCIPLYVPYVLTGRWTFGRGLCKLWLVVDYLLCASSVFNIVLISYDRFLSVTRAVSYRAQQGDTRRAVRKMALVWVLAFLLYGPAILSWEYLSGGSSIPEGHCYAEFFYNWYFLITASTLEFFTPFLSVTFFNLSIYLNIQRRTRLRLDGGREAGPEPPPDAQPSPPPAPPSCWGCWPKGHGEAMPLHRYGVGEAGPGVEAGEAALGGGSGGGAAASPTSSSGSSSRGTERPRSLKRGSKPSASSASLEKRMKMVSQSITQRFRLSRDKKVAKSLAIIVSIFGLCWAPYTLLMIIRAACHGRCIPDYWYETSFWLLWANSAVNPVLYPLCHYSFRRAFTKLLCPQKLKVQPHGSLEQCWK

Chain of Histamine H3 receptor (Homo sapiens, UniProt Q9Y5N1) (Q9Y5N1 whole entry): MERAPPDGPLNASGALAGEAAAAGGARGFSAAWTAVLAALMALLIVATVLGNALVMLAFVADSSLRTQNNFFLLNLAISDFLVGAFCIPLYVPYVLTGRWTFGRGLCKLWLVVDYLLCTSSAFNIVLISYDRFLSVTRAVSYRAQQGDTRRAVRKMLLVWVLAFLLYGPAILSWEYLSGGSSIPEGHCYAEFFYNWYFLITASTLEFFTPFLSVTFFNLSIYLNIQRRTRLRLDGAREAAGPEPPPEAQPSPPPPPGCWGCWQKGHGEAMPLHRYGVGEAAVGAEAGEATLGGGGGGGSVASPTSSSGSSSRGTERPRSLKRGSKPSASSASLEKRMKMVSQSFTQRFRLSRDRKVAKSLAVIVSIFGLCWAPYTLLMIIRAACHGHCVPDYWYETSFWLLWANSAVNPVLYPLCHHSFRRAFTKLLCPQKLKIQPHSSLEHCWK

Row | Structure (SMILES) | Ki [1] | Ki [2]
1 | C[C@@H](NC(=O)c1ccco1)C(=O)N1CCCN(CCCOc2ccc(-c3noc(CC4CCCCC4)n3)c(F)c2)CC1 | 21 nM | 2.6 nM
2 | CC(C)c1nc(-c2ccc(OCCCN3CCCN(C(=O)[C@@H](C)NC(=O)c4ccco4)CC3)cc2F)no1 | 46 nM | 2.1 nM
3 | C[C@@H](NC(=O)c1ccno1)C(=O)N1CCN(CCCOc2ccc(-c3noc(-c4ccccc4)n3)c(F)c2)CC1 | 86 nM | –
4 | C[C@@H](NC(=O)c1ccccc1)C(=O)N1CCN(CCCOc2ccc(-c3noc(-c4ccccc4)n3)c(F)c2)CC1 | 39 nM | 4.6 nM
5 | COc1ccccc1C(=O)N[C@H](C)C(=O)N1CCN(CCCOc2ccc(-c3noc(CC4CCCC4)n3)c(F)c2)CC1 | 54 nM | 7 nM
6 | C[C@@H](NC(=O)c1ccco1)C(=O)N1CCCN(CCCOc2ccc(-c3noc([C@@H](C)NC(=O)OC(C)(C)C)n3)c(F)c2)CC1 | 520 nM | 28 nM
7 | CCC(=O)N[C@H](C)C(=O)N1CCN(CCCOc2ccc(-c3noc(CC4CCCC4)n3)c(F)c2)CC1 | 170 nM | 7.2 nM
8 | C[C@@H](NC(=O)c1ccco1)C(=O)N1CCCN(CCCOc2ccc(-c3noc(-c4cccs4)n3)c(F)c2)CC1 | 160 nM | 6.2 nM
9 | C[C@@H](NC(=O)C1CCCC1)C(=O)N1CCN(CCCOc2ccc(-c3noc(-c4ccccc4)n3)c(F)c2)CC1 | 70 nM | 7 nM
10 | Cc1cccc(C(=O)N[C@H](C)C(=O)N2CCN(CCCOc3ccc(-c4noc(CC5CCCC5)n4)c(F)c3)CC2)c1 | 31 nM | 4.7 nM
11 | C[C@@H](NC(=O)c1ccc(C#N)cc1)C(=O)N1CCCN(CCCOc2ccc(-c3noc(CC4CCCC4)n3)c(F)c2)CC1 | 12 nM | –
12 | C[C@@H](NC(=O)C(C)(C)C)C(=O)N1CCCN(CCCOc2ccc(-c3noc(CC4CCCC4)n3)c(F)c2)CC1 | 36 nM | 2 nM
13 | C[C@@H](NC(=O)[C@@H]1CCCO1)C(=O)N1CCN(CCCOc2ccc(-c3noc(-c4ccccc4)n3)c(F)c2)CC1 | 80 nM | –
14 | C[C@@H](NC(=O)c1ccco1)C(=O)N1CCCN(CCCOc2ccc(-c3noc(C4CC4)n3)c(F)c2)CC1 | 42 nM | 1.5 nM
15 | C[C@@H](NC(=O)c1ccco1)C(=O)N1CCCN(CCCOc2ccc(-c3noc(C4CCCC4)n3)c(F)c2)CC1 | 15 nM | 0.86 nM
16 | C[C@@H](NC(=O)c1cccnc1)C(=O)N1CCN(CCCOc2ccc(-c3noc(-c4ccccc4)n3)c(F)c2)CC1 | 27 nM | –
17 | C[C@@H](NC(=O)c1ccco1)C(=O)N1CCCN(CCCOc2ccc(-c3noc(C4CCCCC4)n3)c(F)c2)CC1 | 19 nM | 2.4 nM
18 | CCc1nc(-c2ccc(OCCCN3CCCN(C(=O)[C@@H](C)NC(=O)c4ccco4)CC3)cc2F)no1 | 120 nM | –
19 | C[C@@H](NC(=O)CCN1CCOCC1)C(=O)N1CCN(CCCOc2ccc(-c3noc(-c4ccccc4)n3)c(F)c2)CC1 | 88 nM | –
20 | CC(C)C(=O)N[C@H](C)C(=O)N1CCN(CCCOc2ccc(-c3noc(-c4ccccc4)n3)c(F)c2)CC1 | 110 nM | 14 nM
21 | CC(C)CC(=O)N[C@H](C)C(=O)N1CCN(CCCOc2ccc(-c3noc(-c4ccccc4)n3)c(F)c2)CC1 | 56 nM | –
22 | CCCCC(=O)N[C@H](C)C(=O)N1CCN(CCCOc2ccc(-c3noc(CC4CCCC4)n3)c(F)c2)CC1 | 79 nM | 2.6 nM
23 | C[C@@H](NC(=O)c1ccco1)C(=O)N1CCCN(CCCOc2ccc(-c3noc(-c4ccsc4)n3)c(F)c2)CC1 | 49 nM | 2.6 nM
24 | CC(=O)N[C@H](C)C(=O)N1CCN(CCCOc2ccc(-c3noc(CC4CCCC4)n3)c(F)c2)CC1 | 200 nM | 8.9 nM

Row | Structure (SMILES) | Ki [1] | Ki [2]
25 | CCCCC(=O)N[C@H](C)C(=O)N1CCCN(CCCOc2ccc(-c3noc(CC4CCCC4)n3)c(F)c2)CC1 | 18 nM | 1.4 nM
26 | C[C@@H](N)C(=O)N1CCN(CCCOc2ccc(C(=O)C3CC3)cc2)CC1 | 760 nM | –
27 | C[C@@H](NC(=O)c1ccc(Cl)cc1)C(=O)N1CCCN(CCCOc2ccc(-c3noc(CC4CCCC4)n3)c(F)c2)CC1 | 31 nM | 5.2 nM
28 | C[C@@H](NC(=O)c1ccc(F)cc1)C(=O)N1CCN(CCCOc2ccc(-c3noc(CC4CCCC4)n3)c(F)c2)CC1 | 17 nM | 1.5 nM
29 | C[C@@H](NC(=O)C1CCCCC1)C(=O)N1CCN(CCCOc2ccc(-c3noc(-c4ccccc4)n3)c(F)c2)CC1 | 49 nM | 6.9 nM
30 | C[C@@H](NC(=O)c1ccc(Cl)c(Cl)c1)C(=O)N1CCN(CCCOc2ccc(-c3noc(CC4CCCC4)n3)c(F)c2)CC1 | 15 nM | 1.8 nM
31 | CC(=O)N[C@H](C)C(=O)N1CCCN(CCCOc2ccc(-c3noc(CC4CCCC4)n3)c(F)c2)CC1 | 40 nM | 2 nM
32 | C[C@@H](NC(=O)c1ccsc1)C(=O)N1CCN(CCCOc2ccc(-c3noc(-c4ccccc4)n3)c(F)c2)CC1 | 28 nM | 4.2 nM
33 | C[C@@H](NC(=O)c1ccc(O)cc1)C(=O)N1CCN(CCCOc2ccc(-c3noc(CC4CCCC4)n3)c(F)c2)CC1 | 16 nM | 1.3 nM
34 | C[C@@H](NC(=O)c1cccc(C#N)c1)C(=O)N1CCN(CCCOc2ccc(-c3noc(CC4CCCC4)n3)c(F)c2)CC1 | 35 nM | 1.5 nM
35 | C[C@@H](NC(=O)c1ccc(C#N)cc1)C(=O)N1CCN(CCCOc2ccc(-c3noc(-c4ccccc4)n3)c(F)c2)CC1 | 20 nM | 2.6 nM
36 | C[C@@H](NC(=O)c1cnccn1)C(=O)N1CCN(CCCOc2ccc(-c3noc(-c4ccccc4)n3)c(F)c2)CC1 | 29 nM | 1.7 nM
37 | COc1ccc(C(=O)N[C@H](C)C(=O)N2CCCN(CCCOc3ccc(-c4noc(CC5CCCC5)n4)c(F)c3)CC2)cc1 | 9.8 nM | 1.1 nM
38 | C[C@@H](NC(=O)c1ccccc1Cl)C(=O)N1CCN(CCCOc2ccc(-c3noc(CC4CCCC4)n3)c(F)c2)CC1 | 8.6 nM | –
39 | C[C@@H](NC(=O)c1cccc(C(F)(F)F)c1)C(=O)N1CCN(CCCOc2ccc(-c3noc(CC4CCCC4)n3)c(F)c2)CC1 | 87 nM | 10 nM
40 | COc1ccc(C(=O)N[C@H](C)C(=O)N2CCN(CCCOc3ccc(-c4noc(CC5CCCC5)n4)c(F)c3)CC2)cc1OC | 24 nM | 2.5 nM
41 | CC(C)C(=O)N[C@H](C)C(=O)N1CCCN(CCCOc2ccc(-c3noc(CC4CCCC4)n3)c(F)c2)CC1 | 14 nM | 1.3 nM
42 | C[C@@H](NC(=O)c1ccc(F)cc1)C(=O)N1CCCN(CCCOc2ccc(-c3noc(CC4CCCC4)n3)c(F)c2)CC1 | 14 nM | 1.2 nM
43 | C[C@@H](NC(=O)c1ccco1)C(=O)N1CCCN(CCCOc2ccc(-c3noc(-c4cccnc4)n3)c(F)c2)CC1 | 190 nM | 6.9 nM
44 | COc1ccc(C(=O)N[C@H](C)C(=O)N2CCN(CCCOc3ccc(-c4noc(CC5CCCC5)n4)c(F)c3)CC2)cc1 | 11 nM | –
45 | C[C@@H](NC(=O)c1cccs1)C(=O)N1CCN(CCCOc2ccc(-c3noc(-c4ccccc4)n3)c(F)c2)CC1 | 40 nM | –
46 | C[C@@H](NC(=O)c1ccco1)C(=O)N1CCCN(CCCOc2ccc(-c3noc(CCc4ccccc4)n3)c(F)c2)CC1 | 7.5 nM | 0.94 nM
47 | CCCCCC(=O)c1ccc(OCCCN2CCN(C(=O)OCC)CC2)cc1 | – | 1 nM
48 | C[C@@H](NC(=O)c1ccco1)C(=O)N1CCN(CCCOc2ccc(-c3noc(-c4ccccc4)n3)c(F)c2)CC1 (stereo in doubt; 13p) | 43 nM | –
